For data set [1], the system named is AP sites in calf thymus DNA. Kind of data set: Competitive AP site binding assayed by Aldehyde Reactive Probe (ARP). An excerpt: 1. Analysis of chemical—modified AP Sites assayed by Aldehyde Reactive Probe (ARP). This is a competitive assay to measure the reactivity with AP site between ARP reagent (Dojindo Molecular Technologies Inc., Gaithersburg, Md.) and the screening compounds. ARP and MX have a similar reactivity with AP sites. They react specifically with an aldehyde group that is open ring form of the AP sites. Thus this assay will allow identification of compounds with potential to block AP site repair based on the binding affinity and efficiency to AP sites of screening compounds compared to ARP and MX.
a. AP site standard preparation: AP sites were produced in a calf thymus DNA by heat/acid-buffer solution. Intact calf thymus DNA was added to sodium citrate buffer (10 mM sodium citrate containing 10 mM NaH2PO4 and 10 mM NaCl, pH 5.0) and held at 70° C. for 30 min. The reaction was stopped by chilling rapidly on ice, and the DNA was then precipitated with cold ethanol, washed with 70% ethanol, dried, and resuspended in sterilized distilled water.
b. […] After NC membrane was rinsed with washing buffer containing NaCl (0.26 M), EDTA (1 mM), Tris-HCI (20 mM), and Tween 20 (1%), ARP-AP sites are visualized with ECL reagents (Amersham Corp.) (FIG. 22A) and quantitated by scanning densitometer (FIG. 22B).

Data set [2] concerns AP-endonuclease (APE). Kind of data set: AP site cleavage by AP-endonuclease (APE). The format is biochemical. As to the method:
2. AP sites cleavaged by AP-endonuclease (APE). […] The assay may be performed as follows (see also FIGS. 23A and B):
a. AP site is prepared by replacing single nucleoside with deoxyuridine in duplex oligonucleotides (40 mer).
b. Regular AP site is produced in the duplex oligonucleotides by human uracil DNA glycosylase (LIDGase, Trevigen, Gaithersburg, Md.) to remove the uracil residue.
c. To generate MX-adducted AP site substrates: the UDG-treated duplex oligonucleotides are mixed with 10 mM MX in buffer containing 10 mM KPO4, pH 7.1 and incubated at 37° C. After 30 min, the substrates are recovered by ethanol precipitation, lyophilized, resuspended in water, and stored at −20° C.
d. APE-cleavage reaction: DNA substrates containing either regular AP-sites or chemicalmodified AP sites are incubated with APE (Trevigen, Gaithersburg, Md.) for 30 min and reactants are precipitated with 100% cold ethanol, washed with 70% ethanol and resuspended in TE buffer. The reactants are resolved by denaturing 20% polyacrylamide gel electrophoresis and visualized by silver staining (Silver Staining Kit, Pharmacia Biotech).

The test system of data set [3] is DLD1 cells and HCT116 cells. Briefly: Potentiation of TMZ cytotoxicity by compound A in tumor cells. The format is cell-based. As to the method:
(§1) On the basis of a similar molecular reaction to MX, (e.g., a primary amine with the carbonyl group of the abasic site), we tested whether a compound (Compound A) would have the ability to bind to AP site generated by TMZ and enhance the killing effect of TMZ. A has a MX-like structure to bind to AP site and also has fluorescence molecules to provide a signal for direct detection of modified AP sites using cellular image. […] In in vitro study, we observed A at non-toxic concentrations (1 mM) sensitized cells to TMZ-cytotoxicity 2-3-fold. In a xenograft model, A (2 mg/kg) combined with TMZ (80 mg/kg) enhanced anti-tumor effect in HCT116 and DLD1, two xenograft tumors with very high resistance to TMZ. Tumor growth delays were 13 days in HCT116 and 12 days in DLD1 treated with the combination of A and TMZ over TMZ alone. Thus, A has a similar effect to MX on interruption of BER and can potentiate chemotherapeutic agents such as alkylating agents. Results are depicted in FIGS. 14-16.

For data set [4], the system named is AP sites in DNA. Kind of data set: Cellular image of fluorescent A-modified AP sites. The data set is classed as cell-based. Particulars: A alone. As to the method:
as §1

Take `NNC(=S)Nc1ccc(-c2c3ccc(=O)cc-3oc3cc(O)ccc23)c(C(=O)O)c1` [Compound A]: in data set [1], the “binding to AP sites assayed with ARP” value was “able to bind to AP sites”. For the same compound, the “cleavage of modified AP sites by APE” value in data set [2] is listed as “refractory to cleavage”. The “cytotoxicity of A alone” value in data set [3] (1 mM) is “non-toxic”. Further, the “sensitization to TMZ-cytotoxicity” value in data set [3] (A at 1 mM) is given as 2-3 fold. In addition, in data set [4], the fluorescence signal result is on record as “no visualized fluorescence signal”.

These data come from patent US8324282B2, “Alkylating agent combinations in the treatment of cancer” (Case Western Reserve University, priority 1999, dated 2012).
